Experimental data reported in ChEMBL document CHEMBL2385073, “Synthesis and evaluation of cholecystokinin trimers: a multivalent approach to pancreatic cancer detection and treatment” (Bioorg Med Chem Lett, 2013).

Tests used:
Assay type in all cases: cell-based
[1] = biological target: T1, Gastrin/cholecystokinin type B receptor (Homo sapiens) (UniProt P32239); assay: Displacement of Eu-DTPA-CCK8 from CCK2 receptor in HEK293 cells after 2 hrs by TRF assay relative to CCK4
T1 sequence (whole entry): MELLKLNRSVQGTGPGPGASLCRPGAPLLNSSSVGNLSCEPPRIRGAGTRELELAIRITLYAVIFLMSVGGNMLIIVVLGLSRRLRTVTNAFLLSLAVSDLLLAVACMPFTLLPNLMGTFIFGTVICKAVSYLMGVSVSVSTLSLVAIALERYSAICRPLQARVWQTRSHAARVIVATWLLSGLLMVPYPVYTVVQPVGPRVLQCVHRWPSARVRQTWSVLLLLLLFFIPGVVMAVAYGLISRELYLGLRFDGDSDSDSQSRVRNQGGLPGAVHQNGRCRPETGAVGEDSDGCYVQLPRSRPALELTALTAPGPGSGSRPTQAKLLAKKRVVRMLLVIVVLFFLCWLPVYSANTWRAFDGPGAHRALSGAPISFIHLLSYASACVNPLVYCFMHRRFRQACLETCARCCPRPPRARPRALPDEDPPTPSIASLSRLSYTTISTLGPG

[2] = biological target: T2, Gastrin/cholecystokinin type B receptor (Homo sapiens, UniProt P32239); assay: Displacement of Eu-DTPA-CCK8 from CCK2 receptor in HEK293 cells after 2 hrs by TRF assay
T2 sequence (P32239 whole entry): T1 sequence (whole entry)

Melanocortin receptor 4 = Melanocortin receptor 4 (Homo sapiens, UniProt P32245); assay: Binding affinity to MC4R in HEK293 cells
Chain of Melanocortin receptor 4 (P32245 whole entry): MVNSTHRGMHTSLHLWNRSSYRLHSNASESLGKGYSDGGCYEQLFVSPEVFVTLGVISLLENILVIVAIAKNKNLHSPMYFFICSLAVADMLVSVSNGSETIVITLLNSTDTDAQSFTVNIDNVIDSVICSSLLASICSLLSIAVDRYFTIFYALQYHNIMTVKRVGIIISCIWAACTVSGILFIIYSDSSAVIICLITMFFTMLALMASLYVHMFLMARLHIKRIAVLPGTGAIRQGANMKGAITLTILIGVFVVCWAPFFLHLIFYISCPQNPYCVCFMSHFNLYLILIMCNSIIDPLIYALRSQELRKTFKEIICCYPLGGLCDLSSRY

Row | Structure (SMILES) | fold change (FC) [1] | IC50 [2] [nM] | IC50 (Melanocortin receptor 4) [nM]
1 | C#CCCC(=O)NCCCC[C@H](NC(C)=O)C(=O)N[C@@H](Cc1c[nH]c2ccccc12)C(=O)N(C)[C@@H](CCCC)C(=O)N[C@@H](CC(=O)O)C(=O)N[C@@H](Cc1ccccc1)C(=O)Nc1cn(CC(=O)NCCC(=O)NCCCC(CCCNC(=O)CCNC(=O)Cn2cc(NC(=O)[C@H](Cc3ccccc3)NC(=O)[C@H](CC(=O)O)NC(=O)[C@H](CCCC)N(C)C(=O)[C@H](Cc3c[nH]c4ccccc34)NC(=O)[C@H](CCCCNC(=O)CCC#C)NC(C)=O)nn2)(NC(=O)CNC(=O)CCNC(=O)Cn2cc(NC(=O)[C@H](Cc3ccccc3)NC(=O)[C@H](CC(=O)O)NC(=O)[C@H](CCCC)N(C)C(=O)[C@H](Cc3c[nH]c4ccccc34)NC(=O)[C@H](CCCCNC(=O)CCC#C)NC(C)=O)nn2)C(=O)NCCC(N)=O)nn1 | 3 | 5.2 | –
2 | C#CCCC(=O)NCCCC[C@H](NC(C)=O)C(=O)N[C@@H](CO)C(=O)N[C@@H](CCCC)C(=O)N[C@@H](CCC(=O)O)C(=O)N[C@@H](Cc1cnc[nH]1)C(=O)N[C@H](Cc1ccccc1)C(=O)N[C@@H](CCCNC(=N)N)C(=O)N[C@@H](Cc1c[nH]c2ccccc12)C(=O)Nc1cn(CC(=O)NCCCC(CCCNC(=O)Cn2cc(NC(=O)[C@H](Cc3c[nH]c4ccccc34)NC(=O)[C@H](CCCNC(=N)N)NC(=O)[C@@H](Cc3ccccc3)NC(=O)[C@H](Cc3cnc[nH]3)NC(=O)[C@H](CCC(=O)O)NC(=O)[C@H](CCCC)NC(=O)[C@H](CO)NC(=O)[C@H](CCCCNC(=O)CCC#C)NC(C)=O)nn2)(NC(=O)CNC(=O)Cn2cc(NC(=O)[C@H](Cc3c[nH]c4ccccc34)NC(=O)[C@H](CCCNC(=N)N)NC(=O)[C@@H](Cc3ccccc3)NC(=O)[C@H](Cc3cnc[nH]3)NC(=O)[C@H](CCC(=O)O)NC(=O)[C@H](CCCC)NC(=O)[C@H](CO)NC(=O)[C@H](CCCCNC(=O)CCC#C)NC(C)=O)nn2)C(=O)NCCC(N)=O)nn1 (stereo not given in full) | – | – | 12
3 | C#CCCC(=O)NCCCC[C@H](NC(C)=O)C(=O)N[C@@H](Cc1c[nH]c2ccccc12)C(=O)N(C)[C@@H](CCCC)C(=O)N[C@@H](CC(=O)O)C(=O)N[C@@H](Cc1ccccc1)C(=O)Nc1cn(CC(=O)NCC(=O)N2CCC[C@H]2C(=O)NCC(=O)NCCCC(CCCNC(=O)CNC(=O)[C@@H]2CCCN2C(=O)CNC(=O)Cn2cc(NC(=O)[C@H](Cc3ccccc3)NC(=O)[C@H](CC(=O)O)NC(=O)[C@H](CCCC)N(C)C(=O)[C@H](Cc3c[nH]c4ccccc34)NC(=O)[C@H](CCCCNC(=O)CCC#C)NC(C)=O)nn2)(NC(=O)CNC(=O)CNC(=O)[C@@H]2CCCN2C(=O)CNC(=O)Cn2cc(NC(=O)[C@H](Cc3ccccc3)NC(=O)[C@H](CC(=O)O)NC(=O)[C@H](CCCC)N(C)C(=O)[C@H](Cc3c[nH]c4ccccc34)NC(=O)[C@H](CCCCNC(=O)CCC#C)NC(C)=O)nn2)C(=O)NCCC(N)=O)nn1 | 2.5 | 6 | –
4 | C#CCCC(=O)NCCCC[C@H](NC(C)=O)C(=O)N[C@@H](Cc1c[nH]c2ccccc12)C(=O)N(C)[C@@H](CCCC)C(=O)N[C@@H](CC(=O)O)C(=O)N[C@@H](Cc1ccccc1)C(=O)Nc1cn(CC(=O)NCCC(=O)NCCC(=O)NCCCC(CCCNC(=O)CCNC(=O)CCNC(=O)Cn2cc(NC(=O)[C@H](Cc3ccccc3)NC(=O)[C@H](CC(=O)O)NC(=O)[C@H](CCCC)N(C)C(=O)[C@H](Cc3c[nH]c4ccccc34)NC(=O)[C@H](CCCCNC(=O)CCC#C)NC(C)=O)nn2)(NC(=O)CNC(=O)CCNC(=O)CCNC(=O)Cn2cc(NC(=O)[C@H](Cc3ccccc3)NC(=O)[C@H](CC(=O)O)NC(=O)[C@H](CCCC)N(C)C(=O)[C@H](Cc3c[nH]c4ccccc34)NC(=O)[C@H](CCCCNC(=O)CCC#C)NC(C)=O)nn2)C(=O)NCCC(N)=O)nn1 | 2 | 8.5 | –
5 | C#CCCC(=O)NCCCC[C@H](NC(C)=O)C(=O)N[C@@H](Cc1c[nH]c2ccccc12)C(=O)N(C)[C@@H](CCCC)C(=O)N[C@@H](CC(=O)O)C(=O)N[C@@H](Cc1ccccc1)C(N)=O | – | 16 | –
6 | C#CCCC(=O)NCCCC[C@H](NC(C)=O)C(=O)N[C@@H](Cc1c[nH]c2ccccc12)C(=O)N(C)[C@@H](CCCC)C(=O)N[C@@H](CC(=O)O)C(=O)N[C@@H](Cc1ccccc1)C(=O)Nc1cn(CC(=O)NCCCC(CCCNC(=O)Cn2cc(NC(=O)[C@H](Cc3ccccc3)NC(=O)[C@H](CC(=O)O)NC(=O)[C@H](CCCC)N(C)C(=O)[C@H](Cc3c[nH]c4ccccc34)NC(=O)[C@H](CCCCNC(=O)CCC#C)NC(C)=O)nn2)(NC(=O)CNC(=O)Cn2cc(NC(=O)[C@H](Cc3ccccc3)NC(=O)[C@H](CC(=O)O)NC(=O)[C@H](CCCC)N(C)C(=O)[C@H](Cc3c[nH]c4ccccc34)NC(=O)[C@H](CCCCNC(=O)CCC#C)NC(C)=O)nn2)C(=O)NCCC(N)=O)nn1 | 1.5 | 12 | –
